From a melting point compilation (Tetko et al.; mined from patent text by program, amines drawn as free bases though some values may be those of a salt)

Row | SMILES | melting point [°C]
1 | CN1C(C(=O)Nc2cccc(F)c2)=C(O)c2ccc3ccccc3c2S1(=O)=O | 278 to 279
2 | COCC(C)Nc1cc(-c2ccnc(Nc3cccc(Cl)c3)n2)cc(Cl)n1 (configuration not stated) | 128 to 129
3 | CSc1nccc(-c2cn(Cc3ccccc3C#N)c(=O)n2-c2ccc(F)cc2)n1 | 141 to 142
4 | CCOc1c(C(=O)O)cnc2nn(C)cc12 | 222 to 225
5 | COc1ccc(-c2ccc(C(C)=O)cc2N)cc1 | 152 to 154
6 | CCCCN(CCCC)CCCOc1ccc(S(=O)(=O)c2ccccc2C(C)C)cc1 | 88
7 | COc1cc(COc2cc(/C=C/c3cscn3)n(-c3ccccc3)n2)ccc1OCc1nc(-c2ccco2)oc1C | 154 to 155
8 | Cc1ccc(C(=O)c2ccc(F)cc2)s1 | 68
9 | Cc1ccc(S(=O)(=O)O[C@H](C)C(=O)N2C(=O)N(C)C[C@H]2C(=O)OCc2ccccc2)cc1 | 153 to 155
10 | Cc1cc(C=O)ccc1C=O | 71 to 72
11 | COc1cn(-c2ccc(N3CCOCC3=O)cc2F)nc(-c2ccnn2-c2ccccc2)c1=O | 193 to 195
12 | COC(=O)c1nc(-c2ccccc2)n2c1CN=C(c1ccccc1F)c1cc(Cl)ccc1-2 | 208 to 209
13 | CN(Cc1ccccc1)C(=O)c1cnc2c([N+](=O)[O-])cccc2c1Cl | 120 to 121
14 | CCN1C(=O)C(C)(C)C(=O)Nc2ccc(C=O)cc21 | 188 to 191
15 | COc1cc2c(cc1OC)C1=NNC(c3ccc(Cl)cc3)C1CCC2 (configuration not stated) | 160 to 163
16 | Clc1nsnc1-c1ccccc1 | 33
17 | CC(C)(CO)Nc1nc(SCc2cccc(Oc3ccccc3)c2)nc2nc(N)sc12 | 126 to 130
18 | CCCCC[C@H]1CC[C@H](c2ccc(NC(=O)OC)cc2)CC1 | 105 to 110
19 | O=C(NC1CCCCC1)Oc1ccc(N=C=S)cc1 | 170 to 173
20 | CCC(=O)Nc1ncc(Sc2ccc(N)cc2)s1 | 185 to 187
21 | Cc1c(C(F)(F)F)n[nH]c1-c1ccc(Cl)cc1 | 139
22 | Cc1nc[nH]c1CSCCNC1=NC(=O)C(C)(C)N1 | 232 to 236
23 | COc1ccnc(CCc2nc3cc(-c4ccc(S(=O)(=O)Nc5ccccc5OC)cc4)cnc3[nH]2)c1 | 215 to 216
24 | Cc1ccc(-n2c(=O)cc(C(F)(F)F)[nH]c2=S)cc1OC(C)C | 227 to 228
25 | COc1ccc(S(=O)(=O)Nc2ccccc2Nc2ncccn2)cc1 | 193 to 195
26 | Cc1cc(Oc2ccc(C(F)(F)F)cc2Cl)cc(C)c1NC(=O)C1C(=O)N(C)C(=S)N(C)C1=O | 171 to 173

Row | SMILES | melting point [°C]
27 | CC(C)C[C@H](NC(=O)COc1ccccc1)C(=O)N[C@@H](C(C)C)[C@H](O)c1c(-c2ccc(F)cc2)c1=O | 75 to 79
28 | C1=Cc2ccccc2NN=C1 | 183 to 184
29 | CCCC(=O)ON=C(c1ccccc1)c1cc(C(C)(C)C)c(O)c(C(C)(C)C)c1 | 118 to 119
30 | C#CCOc1nc(C(F)(F)F)cc(=O)n1-c1cc(C(=O)OC(C)C)c(Cl)cc1F | 117 to 119
31 | OCc1ccc(-c2ccc(F)cn2)cc1 | 100 to 101
32 | CC(C)Nc1ncc2ccc(=O)n(C)c2n1 | 148 to 149
33 | CN1Cc2c(cc(CN3CCOCC3)n2C)C(c2ccccc2)C1 (configuration not stated) | 96 to 97
34 | CCSc1cc(C)nc(SCC)c1NC(=O)CCCCCCCSc1nc2cccc(C(F)(F)F)c2o1 | 99 to 100
35 | Cc1c(CNCc2ccccc2)[nH]c(=O)c2c1ccc1nc(Nc3c(Cl)cccc3Cl)n(C)c12 | 231 to 234
36 | C[C@@H](Nc1c(Nc2ccc(C#N)c(Cl)c2)c(=O)c1=O)C(C)(C)C | > 300
37 | CCN(C(C)=O)c1cccc(-c2ccc3nncn3n2)c1 | 122 to 127
38 | CCCCNC(=O)OC1c2ccccc2C(=O)N1c1ccc2ccc(Cl)nc2n1 (configuration not stated) | 152
39 | S=C=Nc1ccc2oc(-c3sccc3CN3CCOCC3)nc2c1 | 117 to 118
40 | Cn1ncc(SCc2ccccc2)c(Br)c1=O | 118 to 121
41 | Cc1nnc(-c2ccc3scc(-c4ccc(S(C)=O)cc4)c3c2)o1 (configuration not stated) | 166 to 167
42 | O=C1C=CC(O)(c2cc3ccccc3o2)c2ccccc21 (configuration not stated) | 105 to 107
43 | COc1ccc2c(c1)nc(Cn1ccnc1)n2-c1ccccc1 | 104 to 106
44 | COc1nc(C(F)(F)F)cc(=O)n1-c1cc(C(=O)OC(C)C)c(Cl)cc1F | 121 to 123
45 | O=C(O)Cc1ccc2c(c1)CC(CCNS(=O)(=O)c1ccccc1)C2 (configuration not stated) | 102 to 103
46 | CN(C(=S)n1cc(F)c(N)nc1=O)c1ccccc1 | 192 to 196
47 | Cc1ccc(C2(CC(=O)O)CNC(=O)C2)c(C)c1 (configuration not stated) | 225 to 230
48 | O=[N+]([O-])c1cc(Cl)c(I)c(Cl)c1 | 147 to 150
49 | CCOC(=O)c1c(CO)c(C)n(C)c1C | 184 to 186
50 | CCc1cc(CSCCNC(=C[N+](=O)[O-])NC)oc1CN(C)C | 91
51 | CCCOc1c(C2CCN(CCCCNC(=O)c3ccc(-c4ccc(C(F)(F)F)cc4)cc3)CC2)ccc2ccccc12 | 191 to 192
52 | CC(C)Cc1nc[nH]n1 | 71 to 73

Row | SMILES | melting point [°C]
53 | Cc1c(Cl)nnc(Cl)c1C | 80 to 82
54 | COc1ccc(S(=O)(=O)Nc2ccc(OC)nc2Nc2ccccc2)cc1 | 187 to 188
55 | CCCCc1ccc(C(=O)NCCCCCCO)cc1 | 80 to 81
56 | CCCc1nc2c(N)nc3ccccc3c2n1CCC(=O)NC | 177 to 178
57 | CC(=O)CCc1ccc2ccccc2c1 | 56 to 58
58 | N#CCCNC(=O)c1cccc(-c2cccc3oc(Cc4cccc(C(F)(F)F)c4)cc23)c1 | 107 to 108
59 | COc1ccccc1OCCCc1oc(-n2cnc(-c3ccccc3)c2-c2ccccc2)nc1-c1ccc(Cl)cc1 | 118 to 119
60 | CC(C)(C)Nc1c[nH]c2ccccc12 | 137 to 142
61 | CC(=O)C1C(=O)N(C(=O)Nc2ccccc2)c2ccccc21 (configuration not stated) | 171 to 173
62 | CC(C)(C)NC(=O)c1nn(-c2cc(F)cc(F)c2)c2c1C1CCC2C1 (configuration not stated) | 103 to 107
63 | COC1=Cc2c(n(C)c(=O)n2C)CC1=NNC(=N)N | 260
64 | CCOC(=O)C1=C(C(=O)OCC)C(c2ccccc2[N+](=O)[O-])C(C(=O)OCC)=C(C(=O)OCC)N1 | 109
65 | COC(C)c1cc([N+](=O)[O-])ccc1C (configuration not stated) | 35 to 37
66 | O=C(O)c1ccccc1Nc1cccc(Br)c1 | 169 to 171
67 | CC(C)(O)c1ccc(-c2cnc3[nH]c(=O)n(CC4CCOCC4)c3n2)cc1 | 212 to 214
68 | NS(=O)(=O)c1ccccc1SCCF | 83 to 85
69 | CO/C=C(/C(=O)OC)c1ccccc1Oc1nc(Cl)nnc1Cl | 140 to 142
70 | CNc1cc(Br)cc(S(=O)(=O)c2ccccc2)c1 | 143 to 145
71 | CCOC(=O)/C=C/c1ccc(OCC(C)=O)cc1Oc1ncc(C(F)(F)F)cc1Cl | 167 to 168
72 | CCCCCCSc1nn2c(=O)cc(O)nc2s1 | 187 to 192
73 | C[C@H](CSC(=O)c1ccccc1)C(=O)N1C(=O)N(C)C[C@H]1C(=O)OC(C)(C)C | 128
74 | OC1CCCc2nc3ccccc3c(NCc3cccc(C(F)(F)F)c3)c21 (configuration not stated) | 154 to 155
75 | Cc1ccc2c(c1)C=C(c1ccc(OCCN3CCCC3)cc1)S2=O (configuration not stated) | 150 to 151
76 | C=CCC(CC1CC2CCN1CC2)(c1ccccc1)c1ccccc1 (configuration not stated) | 95.5 to 98
77 | CC(C)=CCCC(C)CCCC(C)=CC=CC(C)=CC(=O)O (configuration not stated) | 60 to 62
78 | O=C(Nc1ccc(CC2CCN(S(=O)(=O)c3ccccc3)CC2)cc1)C(F)(F)F | 194 to 195

Row | SMILES | melting point [°C]
79 | O=C1COc2cccc3nc4c(c(c23)N1)CCCC4 | 201 to 202
80 | COc1cc2c(=O)c(-c3ccc(O)cc3)coc2cc1O | 336 to 338
81 | O=[N+]([O-])c1ccc2nnn(OS(=O)(=O)c3ccccc3)c2c1 | 122 to 124
82 | c1ccc(-c2cc(N3CCNCC3)nc3ccccc23)cc1 | 133 to 134
83 | CC(C)(C)OC(=O)N[C@H](C(=O)N1CCC[C@H]1C(=O)NC1CCc2nc(N)ncc2C1)C(c1ccccc1)c1ccccc1 (some centres not stated) | 127 to 130
84 | FC(F)(F)c1cc(-c2ccc(Cl)c(Cl)c2)nc2c(-c3ccccn3)cnn12 | 188
85 | CS(=O)(=O)Nc1c(C(=O)c2ccccc2)[nH]c2cc(Cl)ccc12 | 215 to 218
86 | O=C(O)c1cn(-c2cc([N+](=O)[O-])c(F)c(F)c2F)c2nc(Cl)c(F)cc2c1=O | 216 to 221
87 | COc1ccc(-c2nc3cc4c(cc3[nH]2)NC(=O)C4C(C)C)cc1 (configuration not stated) | 326 to 328
88 | CCC1(Br)Cc2cc(OCC(=O)O)c(C)c(C)c2C1=O (configuration not stated) | 136 to 139
89 | CCCCOCCOc1ccc(-c2ccc3c(c2)C=C(C(=O)OC)CCN3C(=O)CNC(C)=O)cc1 | 130 to 134
90 | Cc1ccc(OCC(=O)O)c(C(=O)NCc2cccc([N+](=O)[O-])c2)c1 | 193 to 194
91 | Cc1ccc(-c2c(C)ccn2-c2ccc(S(C)(=O)=O)cc2)cc1 | 158 to 160
92 | CN(N)c1nc(=S)[nH]c2[nH]cnc12 | 245
93 | COC(=O)Cn1c(C(=O)N(CCC2CCCCC2)c2nc(-c3cc(OC)c(C)cc3OC)cs2)cc2ccccc21 | 144 to 146
94 | COc1ccc(C(=O)Nc2c(Cl)cncc2Cl)c2c1oc1ccc(Br)cc12 | 308
95 | Cc1ccc(Oc2c(C)cc([N+](=O)[O-])c(C)c2Cl)c(C)c1 | 78 to 80
96 | CC12CCC3C(CCC4CC(O)CCC43C)C1CCC2S (configuration not stated) | 169 to 170
97 | COc1cc2nc(NC3CCC(N(C)C)CC3)c(-c3ccccn3)nc2cc1OC (configuration not stated) | 168 to 171
98 | Cc1ccccc1C(=C1CN(C(c2ccccc2)c2ccccc2)C1)S(C)(=O)=O | 218
99 | COc1cc(-c2ncn(C)c2-c2scc(OC)c2OC)cc(OC)c1OC | 142 to 143
100 | COc1ccc(OC)c(C=CC(=O)N(C)O)c1 | 111 to 112
101 | CCOC1CN(Cc2cc(OC)c(OC)c(OC)c2)Cc2cc(OC)c(OCc3ccccc3)cc21 (configuration not stated) | 132 to 133
102 | COc1cn(-c2ccc(-n3cccn3)cc2F)nc(C(C)=O)c1=O | 159 to 161
